Laboratory results as given in patent US20060051868A1, “Methods for increasing conifer somatic embryo initiation, capture, and multiplication” (priority 2001, published 2006).

Experiment: Media pH during Loblolly pine embryogenic culture growth
Assay type: physicochemical
Method: The pH of media containing four different concentrations of MES was compared to that of a non-buffered control media during eight weeks of embryogenic culture growth. Maintenance cultures were established on treatment media using single isolated somatic embryos. Maintenance cultures were prepared and cultured essentially as described in Example 5.
The control media was #1043. (See Table 21). The treatment media consisted of #1043 supplemented with 250, 500, 1000 and 1500 mg/l MES. Media pH was adjusted to 5.7 within all treatments prior to autoclaving, pouring and solidification. Immediately after pouring the media, and thereafter at two week intervals, media pH was measured up to the eighth week of culture growth. At each sampling time, four cultures from each media-genotype treatment were destructively sampled to measure the pH of the media directly underlying the growing embryogenic tissue.

With `O=S(=O)(O)CCN1CCOCC1` [MES, 2-(N-morpholino)-ethanesulfonic acid] as the molecule, how does the “Media pH” value (250 mg/l in media #1043, 0 weeks) read?
Its value is 5.55.

What about the “Media pH” value (250 mg/l in media #1043, 2 weeks) of the same molecule?
Its value is 5.43.

And the “Media pH” value (250 mg/l in media #1043, 4 weeks)?
Its value is 4.69.

What about the “Media pH” value (250 mg/l in media #1043, 6 weeks) of the same molecule?
The value was 4.68.

What about the “Media pH” value (250 mg/l in media #1043, 8 weeks) of the same molecule?
Its value is 4.72.

What about the “Media pH” value (500 mg/l in media #1043, 0 weeks) of the same molecule?
Its value is 5.63.

What about the “Media pH” value (500 mg/l in media #1043, 2 weeks) of the same molecule?
Its value is 5.50.

What about the “Media pH” value (500 mg/l in media #1043, 4 weeks) of the same molecule?
Its value is 4.78.

What about the “Media pH” value (500 mg/l in media #1043, 6 weeks) of the same molecule?
The value was 4.77.

What about the “Media pH” value (500 mg/l in media #1043, 8 weeks) of the same molecule?
The value was 4.54.

What about the “Media pH” value (1000 mg/l in media #1043, 0 weeks) of the same molecule?
Its value is 5.67.

What about the “Media pH” value (1000 mg/l in media #1043, 2 weeks) of the same molecule?
The value was 5.57.

What about the “Media pH” value (1000 mg/l in media #1043, 4 weeks) of the same molecule?
The value was 5.38.

What about the “Media pH” value (1000 mg/l in media #1043, 6 weeks) of the same molecule?
The value was 4.70.

What about the “Media pH” value (1000 mg/l in media #1043, 8 weeks) of the same molecule?
The value was 4.89.

And the “Media pH” value (1500 mg/l in media #1043, 0 weeks)?
Its value is 5.67.

And the “Media pH” value (1500 mg/l in media #1043, 2 weeks)?
Its value is 5.59.

What about the “Media pH” value (1500 mg/l in media #1043, 4 weeks) of the same molecule?
Its value is 5.59.

What about the “Media pH” value (1500 mg/l in media #1043, 6 weeks) of the same molecule?
The value was 4.91.

And the “Media pH” value (1500 mg/l in media #1043, 8 weeks)?
Its value is 5.18.
